This note sets out measurements from patent publication US20220169643A1, “ESTROGEN RECEPTOR DEGRADING PROTACS” (AstraZeneca AB, priority 2019, published 2022).

The target of this test is T1, Estrogen Receptor Alpha Ligand binding domain (ER alpha-LBD (GST)) (Homo sapiens, UniProt P03372).
T1 construct: made in house
T1 sequence (P03372 307-554): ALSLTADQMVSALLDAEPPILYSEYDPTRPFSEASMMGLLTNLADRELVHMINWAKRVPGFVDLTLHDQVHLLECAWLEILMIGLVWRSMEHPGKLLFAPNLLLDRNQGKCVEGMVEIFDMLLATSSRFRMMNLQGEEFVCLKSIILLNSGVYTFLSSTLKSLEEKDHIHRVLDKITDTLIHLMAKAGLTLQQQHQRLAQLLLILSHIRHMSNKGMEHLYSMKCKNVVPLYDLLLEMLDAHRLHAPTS
As to the kind of experiment: ERα Binding Assay (LanthaScreen TR-FRET competition). Conditions: competitive displacement of Fluormone ES2 tracer from recombinant human ER alpha-LBD (residues 307-554), 4 hours at room temperature. As to the method: The ability of compounds to bind to isolated Estrogen Receptor Alpha Ligand binding domain (ER alpha-LBD (GST)) was assessed in competition assays using a LanthaScreen™ Time-Resolved Fluorescence Resonance Energy Transfer (TR-FRET) detection end-point. For the LanthaScreen TR-FRET endpoint, a suitable fluorophore (Fluormone ES2, ThermoFisher, Product code P2645) and recombinant human Estrogen Receptor alpha ligand binding domain, residues 307-554 (expressed and purified in-house) were used to measure compound binding. The assay principle is that ER alpha-LBD (GST) is added to a fluorescent ligand to form a receptor/fluorophore complex. A terbium-labelled anti-GST antibody (Product code PV3551) is used to indirectly label the receptor by binding to its GST tag, and competitive binding is detected by a test compound's ability to displace the fluorescent ligand, resulting in a loss of TR-FRET signal between the Th-anti-GST antibody and the tracer. The assay was performed as follows with all reagent additions carried out using the Beckman Coulter BioRAPTR FRD microfluidic workstation: • 1. Acoustic dispense 120 nL of the test compound into a black low volume 384 well assay plates. • 2. Prepare 1×ER alpha-LBD/Tb-anti-GST Ab in ES2 screening buffer and incubate for 15 minutes. • 3. Dispense 6 μL of the 1×[…]/Th-anti-GST Ab reagent into each well of the assay plate followed by 6 μL of Fluorophore reagent into each well of the assay plate • 4. Cover the assay plate to protect the reagents from light and evaporation, and incubate at room temperature for 4 hours. • 5. Excite at 337 nm and measure the fluorescent emission signal of each well at 490 nm and 520 nm using the BMG PheraSTAR.
Compounds were dosed directly from a compound source microplate containing serially diluted compound (4 wells containing 10 mM, […] and 10 nM final compound respectively) to an assay microplate using the Labcyte Echo 550. The Echo 550 is a liquid handler that uses acoustic technology to perform direct microplate-to-microplate transfers of DMSO compound solutions and the system can be programmed to transfer multiple small nL volumes of compound from the different source plate wells to give the desired serial dilution of compound in the assay which is then back-filled to normalise the DMSO concentration across the dilution range.
In total 120 nL of compound plus DMSO were added to each well and compounds were tested in a 12-point concentration response format over a final compound concentration range of 10, 2.917, 1.042, 0.2083, 0.1, 0.0292, 0.0104, 0.002083, 0.001, 0.0002917, 0.0001042, and 0.00001 μM respectively. TR-FRET dose response data obtained with each compound was exported into a suitable software package (such as Origin or Genedata) to perform curve fitting analysis. Competitive ER alpha binding was expressed as an IC50 value. This was determined by calculation of the concentration of compound that was required to give a 50% reduction in tracer compound binding to ER alpha-LBD.
Regarding `C[C@@H]1Cc2c([nH]c3ccccc23)[C@@H](c2cnc(N3CCC4(CCN(CCC5CCN(c6ccc7c(c6)CN(C6CCC(=O)NC6=O)C7=O)CC5)CCO4)CC3)nc2)N1CC(C)(C)F` (stereo partly drawn) [Example 17, 3-(5-{4-[2-(3-{5-[(1R,3R)-2-(2-fluoro-2-methylpropyl)-3-methyl-2,3,4,9-tetrahydro-1H-beta-carbolin-1-yl]pyrimidin-2-yl}-7-oxa-3,10-diazaspiro[5.6]dodecan-10-yl)ethyl]piperidin-1-yl}-1-oxo-1,3-dihydro-2H-isoindol-2-yl)piperidine-2,6-dione], the IC50 stood at 13.8 nM. As for `C[C@@H]1Cc2c([nH]c3ccccc23)[C@@H](c2cnc(OC3CCC4(CC3)CCN(CC3CCN(c5ccc6c(c5)CN(C5CCC(=O)NC5=O)C6=O)CC3)CC4)nc2)N1CC(C)(C)F` (stereo partly drawn) [Example 41, 3-[5-(4-{[9-({5-[(1R,3R)-2-(2-fluoro-2-methylpropyl)-3-methyl-2,3,4,9-tetrahydro-1H-beta-carbolin-1-yl]pyrimidin-2-yl}oxy)-3-azaspiro[5.5]undecan-3-yl]methyl}piperidin-1-yl)-1-oxo-1,3-dihydro-2H-isoindol-2-yl]piperidine-2,6-dione], the figure is 2.2 nM; as for `C[C@@H]1Cc2c([nH]c3ccccc23)[C@@H](c2c(F)cc(OCCCCCN3CCN(c4ccc5c(c4)CN(C4CCC(=O)NC4=O)C5=O)CC3)cc2F)N1CC(C)(C)F` (stereo partly drawn) [Example 5, 3-[5-[4-[5-[3,5-Difluoro-4-[(1R,3R)-2-(2-fluoro-2-methyl-propyl)-3-methyl-1,3,4,9-tetrahydropyrido[3,4-b]indol-1-yl]phenoxy]pentyl]piperazin-1-yl]-1-oxo-isoindolin-2-yl]piperidine-2,6-dione], 3.7 nM. For the compound `C[C@@H]1Cc2c([nH]c3ccccc23)[C@@H](c2cnc(N3CCC4(CCN(CCC5CCN(c6ccc7c(c6)CN(C6CCC(=O)NC6=O)C7=O)CC5)CC4)CC3)nc2)N1CC(C)(C)F` (stereo partly drawn) [Example 10, 3-(5-{4-[2-(9-{5-[(1R,3R)-2-(2-fluoro-2-methylpropyl)-3-methyl-2,3,4,9-tetrahydro-1H-beta-carbolin-1-yl]pyrimidin-2-yl}-3,9-diazaspiro[5.5]undecan-3-yl)ethyl]piperidin-1-yl}-1-oxo-1,3-dihydro-2H-isoindol-2-yl)piperidine-2,6-dione], the 50% inhibitory concentration (IC50) stood at 22.3 nM. For `C[C@@H]1Cc2c([nH]c3ccccc23)[C@@H](c2cnc(N3CCC(OCCN4CCN(c5ccc6c(c5)CN(C5CCC(=O)NC5=O)C6=O)CC4)CC3)nc2)N1CC(C)(C)F` (stereo partly drawn) [Example 4, 3-[5-[4-[2-[[1-[5-[(1R,3R)-2-(2-Fluoro-2-methyl-propyl)-3-methyl-1,3,4,9-tetrahydropyrido[3,4-b]indol-1-yl]pyrimidin-2-yl]-4-piperidyl]oxy]ethyl]piperazin-1-yl]-1-oxo-isoindolin-2-yl]piperidine-2,6-dione], the concentration for half-maximal inhibition (IC50) stood at 2.1 nM. In the case of `C[C@@H]1Cc2c([nH]c3ccccc23)[C@@H](c2cnc(N3CCC(CCN4CCN(c5ccc6c(c5)CN(C5CCC(=O)NC5=O)C6=O)CC4)CC3)nc2)N1CC(C)(C)F` (stereo partly drawn) [Example 2, 3-[5-[4-[2-[1-[5-[(1R,3R)-2-(2-Fluoro-2-methyl-propyl)-3-methyl-1,3,4,9-tetrahydropyrido[3,4-b]indol-1-yl]pyrimidin-2-yl]-4-piperidyl]ethyl]piperazin-1-yl]-1-oxo-isoindolin-2-yl]piperidine-2,6-dione], the IC50 stood at 3.3 nM.

As to `C[C@@H]1Cc2c([nH]c3ccccc23)[C@@H](c2cnc(N3CCC4(CCN(CC5CCN(c6ccc7c(c6)CN(C6CCC(=O)NC6=O)C7=O)CC5)CCO4)CC3)nc2)N1CC(C)(C)F` (stereo partly drawn) [Example 18, 3-(5-{4-[(3-{5-[(1R,3R)-2-(2-fluoro-2-methylpropyl)-3-methyl-2,3,4,9-tetrahydro-1H-beta-carbolin-1-yl]pyrimidin-2-yl}-7-oxa-3,10-diazaspiro[5.6]dodecan-10-yl)methyl]piperidin-1-yl}-1-oxo-1,3-dihydro-2H-isoindol-2-yl)piperidine-2,6-dione], the IC50 was determined as 9.5 nM. As to `COc1cc(N2CCN(CCCC3CCN(c4ncc([C@@H]5c6[nH]c7ccccc7c6C[C@@H](C)N5CC(C)(C)F)cn4)CC3)CC2)cc2c1C(=O)N(C1CCC(=O)NC1=O)C2` (stereo partly drawn) [Example 13, 3-(5-{4-[3-(1-{5-[(1R,3R)-2-(2-fluoro-2-methylpropyl)-3-methyl-2,3,4,9-tetrahydro-1H-beta-carbolin-1-yl]pyrimidin-2-yl}piperidin-4-yl)propyl]piperazin-1-yl}-7-methoxy-1-oxo-1,3-dihydro-2H-isoindol-2-yl)piperidine-2,6-dione], the IC50 is 3 nM. Regarding `C[C@@H]1Cc2c([nH]c3ccccc23)[C@@H](c2cnc(N3CCC(CCCN4CCN(c5ccc6c(c5)CN(C5CCC(=O)NC5=O)C6=O)CC4)CC3)nc2)N1CC(C)(C)F` (stereo partly drawn) [Example 8, 3-(5-{4-[3-(1-{5-[(1R,3R)-2-(2-fluoro-2-methylpropyl)-3-methyl-2,3,4,9-tetrahydro-1H-beta-carbolin-1-yl]pyrimidin-2-yl}piperidin-4-yl)propyl]piperazin-1-yl}-1-oxo-1,3-dihydro-2H-isoindol-2-yl)piperidine-2,6-dione], the 50% inhibitory concentration (IC50) is 4.3 nM. As for `C[C@@H]1Cc2c([nH]c3ccccc23)[C@@H](c2cnc(N3CCC(CN4CCC5(CC4)CCN(c4ccc6c(c4)CN(C4CCC(=O)NC4=O)C6=O)CC5)CC3)nc2)N1CC(C)(C)F` (mixture of isomers) [Example 7, 3-(5-{9-[(1-{5-[(1R,3R)-2-(2-fluoro-2-methylpropyl)-3-methyl-2,3,4,9-tetrahydro-1H-beta-carbolin-1-yl]pyrimidin-2-yl}piperidin-4-yl)methyl]-3,9-diazaspiro[5.5]undecan-3-yl}-1-oxo-1,3-dihydro-2H-isoindol-2-yl)piperidine-2,6-dione], the figure is 4.7 nM; as for `C[C@@H]1Cc2c([nH]c3ccccc23)[C@@H](c2cnc(N3CCC(CN4CCN(c5ccc6c(c5)CN(C5CCC(=O)NC5=O)C6=O)CC4)CC3)nc2)N1CC(C)(C)F` (stereo partly drawn) [Example 1, 3-[5-[4-[[1-[5-[(1R,3R)-2-(2-Fluoro-2-methyl-propyl)-3-methyl-1,3,4,9-tetrahydropyrido[3,4-b]indol-1-yl]pyrimidin-2-yl]-4-piperidyl]methyl]piperazin-1-yl]-1-oxo-isoindolin-2-yl]piperidine-2,6-dione], 3.1 nM. Then `C[C@@H]1Cc2c([nH]c3ccccc23)[C@@H](c2cnc(N3CCC4(CCN(CCN5CCN(c6ccc7c(c6)CN(C6CCC(=O)NC6=O)C7=O)CC5=O)CC4)CC3)nc2)N1CC(C)(C)F` (stereo partly drawn) [Example 26, 3-(5-{4-[2-(9-{5-[(1R,3R)-2-(2-fluoro-2-methylpropyl)-3-methyl-2,3,4,9-tetrahydro-1H-beta-carbolin-1-yl]pyrimidin-2-yl}-3,9-diazaspiro[5.5]undecan-3-yl)ethyl]-3-oxopiperazin-1-yl}-1-oxo-1,3-dihydro-2H-isoindol-2-yl)piperidine-2,6-dione], with 18 nM; and `COc1cc(N2CCN(CCC3CCN(c4ncc([C@@H]5c6[nH]c7ccccc7c6C[C@@H](C)N5CC(C)(C)F)cn4)CC3)CC2)cc2c1C(=O)N(C1CCC(=O)NC1=O)C2` (stereo partly drawn) [Example 12, 3-(5-{4-[2-(1-{5-[(1R,3R)-2-(2-fluoro-2-methylpropyl)-3-methyl-2,3,4,9-tetrahydro-1H-beta-carbolin-1-yl]pyrimidin-2-yl}piperidin-4-yl)ethyl]piperazin-1-yl}-7-methoxy-1-oxo-1,3-dihydro-2H-isoindol-2-yl)piperidine-2,6-dione], with 1.5 nM.
